Key:
Format in all cases: cell-based
[1] = test system: HT-29 human colorectal cancer cells; assay: DNA biosynthesis, [3H]-thymidine incorporation; settings: HT-29, 24-hour incubation
Description: HT-29 human colorectal cancer cells (ATCC HTB-38, Manassas, VA, USA) were cultured in McCoy's 5A medium supplemented with 10% fetal bovine serum (FBS), 2 mM glutamine, 50 U/ml penicillin, 50 μg/ml of streptomycin at 37° C., in atmosphere containing 5% CO2. Subsequently, the cells were counted in a hemocytometer and were transferred in the amount of 1×10^6 cells per well in 1 ml of culture medium from Costar flasks (Sigma, USA) to Nunc 6-well plates (Wiesbaden, Germany). The cells were transferred using calcium-free phosphate buffer with the addition of 0.05% trypsin and 0.02% EDTA. […] Within the subsequent 24 hours the cells covered at least 80% of the surface of each plate well. The cells prepared in this manner were incubated with the examined compounds for 24 hours and then used for further experiments.
(§1) The effect of the examined compounds according to the invention on the process of DNA biosynthesis was assessed by measuring incorporation of [^3H]-thymidine into DNA of the examined cells. […] After 5 minutes, the cell lysate obtained was transferred to scintillation vials containing 2 ml of scintillation fluid and radioactivity was measured. […] The values from the examined samples were expressed as percentage of the control value. The significance level p was determined by the nonparametric Mann-Whitney U test by means of SigmaStat software. […]

[2] = test system: AGS human gastric cancer cells; assay: DNA biosynthesis, [3H]-thymidine incorporation; settings: 24-hour incubation
Description: (§2) AGS human gastric cancer cells (ATCC CRL-1739, Manassas, VA, USA) were cultured in DMEM (Dulbecco's Modified Eagle's Medium) supplemented with 10% fetal bovine serum (FBS), 2 mM glutamine, 50 U/ml penicillin, 50 μg/ml streptomycin at 37° C., in atmosphere containing 5% CO2. Subsequently, the cells were counted in a hemocytometer and transferred in the amount of […] cells per well in 1 ml of culture medium from Costar flasks (Sigma, USA) to Nunc 6-well plates (Wiesbaden, Germany). The cells were transferred using calcium-free phosphate buffer with the addition of 0.05% trypsin and 0.02% EDTA. […] Within the subsequent 24 hours the cells covered at least 80% of the surface of each plate well. The cells prepared in this manner were incubated with the examined compounds for 24 hours and then used for further experiments.
as §1

[3] = test system: AGS human gastric cancer cells; assay: Cytotoxicity, MTT assay (Carmichael's method), cell survival; settings: 24-hour incubation
Description: as §2, with “The cells prepared in this manner were incubated with the examined compounds for 24 hours and then used for further experiments.” left out
(§3) Cytotoxicity of the examined compounds according to the invention was measured by Carmichael's method (Carmichael J et al, Cancer Res., 1987, 47:943-946) and cell viability was determined using the tetrazolium salt (MT) in MTT assay. […] In a cell lysate prepared in such manner absorbance at 630 nm was measured. The result of absorbance obtained in the control cell cultures was assumed to be 100%. The viability of cells incubated in the presence of the examined compounds was expressed as percentage of the control values. The significance level p was determined by the nonparametric Mann-Whitney U test by means of SigmaStat software. […]

[4] = test system: DLD-1 human colorectal cancer cells; assay: as above; settings: DLD-1, 24-hour incubation
Description: DLD-1 human colorectal cancer cells (ATCC CCL-221, Manassas, VA, USA) were grown in DMEM (Dulbecco's Modified Eagle's Medium) supplemented with 10% fetal bovine serum (FBS), 2 mM glutamine, 50 U/ml penicillin, 50 μg/ml streptomycin at 37° C., in atmosphere containing 5% of CO2. Then the cells were counted in a hemocytometer and transferred in the amount of 1×10^6 cells per well in 1 ml of culture medium from Costar flasks (Sigma, USA) to Nunc 6-well plates (Wiesbaden, Germany). The cells were transferred using calcium-free phosphate buffer with the addition of 0.05% trypsin and 0.02% EDTA. […] Within the subsequent 24 hours the cells covered at least 80% of the surface of each plate well. […]
as §3

COC(=O)C1CC(O)CN1S(=O)(=O)c1ccc(-n2nc(C)c3nc4nnnn4nc32)cc1 (centres unmarked) [Compound of Formula 3, Methyl 4-hydroxy-1-[4-(7-methyl-5H-pyrazolo[4,3-e]tetrazolo[4,5-b][1,2,4]triazyn-5-yl)phenylsulfonyl]pyrrolidine-2-carboxylate]
IC50 [1]: 2300 ± 20 nM | IC50 [2]: 1050 ± 10 nM | IC50 [3]: 800 ± 10 nM | IC50 [4]: 3100 ± 20 nM

COC(=O)C1CCCN1S(=O)(=O)c1ccc(-n2nc(C)c3nc4nnnn4nc32)cc1 (centres unmarked) [Compound of Formula 2, Methyl 1-[4-(7-methyl-5H-pyrazol[4,3-e]tetrazolo[4,5-b][1,2,4]triazyn-5-yl)phenylsulfonyl]pyrrolidine-2-carboxylate]
IC50 [1]: 3620 ± 20 nM | IC50 [2]: 550 ± 10 nM | IC50 [3]: 920 ± 10 nM | IC50 [4]: 1100 ± 10 nM

From US12319699B2, “L-proline sulfonamide derivatives comprising pyrazolo[4,3-e]tetrazolo[4,5-b][1,2,4]triazine system, method of manufacturing thereof, uses thereof and pharmaceutical composition comprising the same” (UNIWERSYTET MEDYCZNY W BIALYMSTOKU, priority 2018, dated 2025)
